Legend:
[1] = molecular target: T1, Muscarinic acetylcholine receptor M4 (Homo sapiens) (UniProt P08173); assay: Agonist activity at recombinant human muscarinic M4 receptor at 10 uM by GTPgamma[35S] binding-based assay relative to agonist; type: functional
T1 sequence (whole entry): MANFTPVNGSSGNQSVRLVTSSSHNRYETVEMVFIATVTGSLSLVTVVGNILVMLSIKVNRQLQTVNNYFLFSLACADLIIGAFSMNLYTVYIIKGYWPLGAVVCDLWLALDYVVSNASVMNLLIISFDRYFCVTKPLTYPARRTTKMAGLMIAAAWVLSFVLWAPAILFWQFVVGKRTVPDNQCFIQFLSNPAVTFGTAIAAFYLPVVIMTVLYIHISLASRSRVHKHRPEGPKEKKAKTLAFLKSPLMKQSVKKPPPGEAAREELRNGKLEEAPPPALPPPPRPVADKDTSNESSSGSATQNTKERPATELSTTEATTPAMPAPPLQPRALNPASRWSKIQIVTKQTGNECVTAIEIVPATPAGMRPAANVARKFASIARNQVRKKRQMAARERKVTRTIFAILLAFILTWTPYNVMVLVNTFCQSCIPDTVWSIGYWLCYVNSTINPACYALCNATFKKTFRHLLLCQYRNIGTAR

[2] = molecular target: T2, Alpha-2A adrenergic receptor (Homo sapiens) (UniProt P08913); assay: Agonist activity at recombinant human alpha-2a adrenergic receptor at 10 uM by GTPgamma[35S] binding-based assay relative to agonist; type: functional
T2 sequence (whole entry): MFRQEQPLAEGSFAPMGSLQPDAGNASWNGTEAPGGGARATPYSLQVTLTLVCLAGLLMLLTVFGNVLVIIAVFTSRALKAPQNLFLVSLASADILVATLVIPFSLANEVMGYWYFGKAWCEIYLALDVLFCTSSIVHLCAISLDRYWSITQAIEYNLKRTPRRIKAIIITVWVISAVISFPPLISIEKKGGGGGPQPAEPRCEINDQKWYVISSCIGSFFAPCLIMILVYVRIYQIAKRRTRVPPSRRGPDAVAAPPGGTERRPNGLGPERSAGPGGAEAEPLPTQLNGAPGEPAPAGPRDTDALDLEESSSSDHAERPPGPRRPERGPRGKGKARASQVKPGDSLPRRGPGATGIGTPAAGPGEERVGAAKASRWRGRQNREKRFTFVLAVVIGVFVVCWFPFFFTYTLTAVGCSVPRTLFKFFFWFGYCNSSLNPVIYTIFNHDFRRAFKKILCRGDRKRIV

[3] = molecular target: T3, Cholecystokinin receptor type A (Homo sapiens) (UniProt P32238); assay: Agonist activity at recombinant human […] receptor at 10 uM by aequorin reporter based assay relative to agonist; type: functional
T3 sequence (whole entry): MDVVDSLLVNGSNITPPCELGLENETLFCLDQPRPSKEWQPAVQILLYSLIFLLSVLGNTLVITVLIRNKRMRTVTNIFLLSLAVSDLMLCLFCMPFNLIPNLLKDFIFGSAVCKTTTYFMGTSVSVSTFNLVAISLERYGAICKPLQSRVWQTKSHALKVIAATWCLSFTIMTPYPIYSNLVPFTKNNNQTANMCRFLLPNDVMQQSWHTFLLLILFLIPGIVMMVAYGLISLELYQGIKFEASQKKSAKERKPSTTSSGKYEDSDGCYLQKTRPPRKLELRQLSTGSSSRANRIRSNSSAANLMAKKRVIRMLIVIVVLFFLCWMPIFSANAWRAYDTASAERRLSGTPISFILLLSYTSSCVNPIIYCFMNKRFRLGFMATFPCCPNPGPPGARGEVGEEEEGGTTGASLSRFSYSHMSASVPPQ

[4] = molecular target: Kappa-type opioid receptor (Homo sapiens) (UniProt P41145); assay: Antagonist activity at human kappa-type opioid receptor assessed as inhibition of agonist-induced effect at 10 uM by GTPgamma[35S] binding-based assay; type: functional
[5] = molecular target: Histamine H2 receptor (Homo sapiens) (UniProt P25021); assay: Agonist activity at recombinant human histamine H2 receptor assessed as induction of cAMP levels at 10 uM by HTRF assay relative to agonist; type: functional
[6] = molecular target: Beta-1 adrenergic receptor (Homo sapiens) (UniProt P08588); assay: Antagonist activity at recombinant human beta-1 adrenergic receptor assessed as inhibition of agonist-induced cAMP induction at 10 uM by HTRF assay; type: functional
[7] = molecular target: D(2) dopamine receptor (Homo sapiens) (UniProt P14416); assay: Agonist activity at recombinant human dopamine D2L receptor at 10 uM by GTPgamma[35S] binding-based assay relative to agonist
[8] = molecular target: T2, Alpha-2A adrenergic receptor (Homo sapiens); assay: Antagonist activity at recombinant human alpha-2a adrenergic receptor assessed as inhibition of agonist-induced effect at 10 uM by GTPgamma[35S] binding-based assay; type: functional
[9] = molecular target: T3, Cholecystokinin receptor type A (Homo sapiens); assay: Antagonist activity at recombinant human […] receptor assessed as inhibition of agonist induced effect at 10 uM by aequorin reporter based assay; type: functional
[10] = molecular target: T4, 5-hydroxytryptamine receptor 1A (Homo sapiens) (UniProt P08908); assay: Agonist activity at recombinant human 5-HT1A assessed as induction of cAMP levels at 10 uM by HTRF assay relative to agonist; type: functional
T4 sequence (whole entry): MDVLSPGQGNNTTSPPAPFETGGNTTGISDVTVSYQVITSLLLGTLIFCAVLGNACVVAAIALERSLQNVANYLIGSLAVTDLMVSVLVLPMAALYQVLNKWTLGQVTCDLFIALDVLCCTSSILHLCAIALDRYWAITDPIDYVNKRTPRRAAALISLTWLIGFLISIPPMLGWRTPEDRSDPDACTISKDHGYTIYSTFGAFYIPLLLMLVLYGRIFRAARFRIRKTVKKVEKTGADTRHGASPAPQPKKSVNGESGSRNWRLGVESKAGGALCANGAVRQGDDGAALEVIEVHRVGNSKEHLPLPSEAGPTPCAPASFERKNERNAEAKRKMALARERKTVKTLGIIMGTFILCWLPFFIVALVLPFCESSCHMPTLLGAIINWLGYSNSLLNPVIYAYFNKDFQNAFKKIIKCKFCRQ

[11] = molecular target: Somatostatin receptor type 4 (Homo sapiens) (UniProt P31391); assay: Antagonist activity at human somatostatin receptor 4 assessed as inhibition of agonist-induced effect at 10 uM by GTPgamma[35S] binding-based assay; type: functional
[12] = molecular target: Substance-P receptor (Homo sapiens) (UniProt P25103); assay: Antagonist activity at recombinant human NK1R assessed as inhibition of agonist-induced effect at 10 uM by aequorin reporter based assay; type: functional
Sequence of Substance-P receptor (Homo sapiens) (P25103 whole entry): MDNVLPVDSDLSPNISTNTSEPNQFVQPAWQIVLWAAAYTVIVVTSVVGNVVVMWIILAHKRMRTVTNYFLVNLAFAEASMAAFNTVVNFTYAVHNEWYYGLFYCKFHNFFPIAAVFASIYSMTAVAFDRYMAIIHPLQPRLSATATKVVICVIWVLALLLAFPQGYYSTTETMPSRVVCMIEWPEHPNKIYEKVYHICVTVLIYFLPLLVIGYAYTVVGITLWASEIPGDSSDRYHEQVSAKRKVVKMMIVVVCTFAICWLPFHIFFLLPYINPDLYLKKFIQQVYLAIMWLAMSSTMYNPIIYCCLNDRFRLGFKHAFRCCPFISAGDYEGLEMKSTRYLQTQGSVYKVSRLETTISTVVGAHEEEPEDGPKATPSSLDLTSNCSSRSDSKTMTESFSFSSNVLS

Sequence of Somatostatin receptor type 4 (Homo sapiens) (P31391 whole entry): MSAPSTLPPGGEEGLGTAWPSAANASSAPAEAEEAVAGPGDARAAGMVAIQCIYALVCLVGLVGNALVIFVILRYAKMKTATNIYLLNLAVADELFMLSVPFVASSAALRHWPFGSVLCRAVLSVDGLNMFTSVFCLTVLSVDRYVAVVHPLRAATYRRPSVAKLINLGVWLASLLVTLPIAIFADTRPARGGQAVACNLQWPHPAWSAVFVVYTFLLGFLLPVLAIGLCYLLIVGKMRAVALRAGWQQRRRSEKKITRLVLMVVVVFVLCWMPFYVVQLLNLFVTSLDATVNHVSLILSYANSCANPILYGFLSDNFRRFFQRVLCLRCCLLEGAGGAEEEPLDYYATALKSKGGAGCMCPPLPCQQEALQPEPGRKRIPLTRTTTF
Sequence of Histamine H2 receptor (Homo sapiens) (P25021 whole entry): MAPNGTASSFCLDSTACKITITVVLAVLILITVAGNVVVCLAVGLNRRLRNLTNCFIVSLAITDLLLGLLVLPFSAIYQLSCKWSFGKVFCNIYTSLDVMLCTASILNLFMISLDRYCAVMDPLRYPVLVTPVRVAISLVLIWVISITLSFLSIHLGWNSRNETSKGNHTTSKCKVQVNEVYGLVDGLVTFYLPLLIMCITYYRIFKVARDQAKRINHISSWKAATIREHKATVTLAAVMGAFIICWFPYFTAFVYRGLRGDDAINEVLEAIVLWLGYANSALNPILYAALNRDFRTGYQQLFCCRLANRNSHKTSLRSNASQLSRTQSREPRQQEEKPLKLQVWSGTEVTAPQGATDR
Sequence of Beta-1 adrenergic receptor (Homo sapiens) (P08588 whole entry, looked up): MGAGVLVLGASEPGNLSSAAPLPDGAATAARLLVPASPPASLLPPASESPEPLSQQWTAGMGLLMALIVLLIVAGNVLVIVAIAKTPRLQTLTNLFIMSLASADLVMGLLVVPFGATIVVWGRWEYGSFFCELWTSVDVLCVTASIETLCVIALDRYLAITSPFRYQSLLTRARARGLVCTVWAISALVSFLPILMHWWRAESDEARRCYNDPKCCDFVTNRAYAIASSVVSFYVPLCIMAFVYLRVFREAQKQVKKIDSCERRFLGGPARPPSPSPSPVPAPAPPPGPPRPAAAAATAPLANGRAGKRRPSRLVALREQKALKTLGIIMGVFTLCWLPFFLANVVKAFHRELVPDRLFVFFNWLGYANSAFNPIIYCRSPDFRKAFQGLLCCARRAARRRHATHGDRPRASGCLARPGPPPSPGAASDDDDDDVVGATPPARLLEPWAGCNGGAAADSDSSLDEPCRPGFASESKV
Sequence of D(2) dopamine receptor (Homo sapiens) (P14416 whole entry): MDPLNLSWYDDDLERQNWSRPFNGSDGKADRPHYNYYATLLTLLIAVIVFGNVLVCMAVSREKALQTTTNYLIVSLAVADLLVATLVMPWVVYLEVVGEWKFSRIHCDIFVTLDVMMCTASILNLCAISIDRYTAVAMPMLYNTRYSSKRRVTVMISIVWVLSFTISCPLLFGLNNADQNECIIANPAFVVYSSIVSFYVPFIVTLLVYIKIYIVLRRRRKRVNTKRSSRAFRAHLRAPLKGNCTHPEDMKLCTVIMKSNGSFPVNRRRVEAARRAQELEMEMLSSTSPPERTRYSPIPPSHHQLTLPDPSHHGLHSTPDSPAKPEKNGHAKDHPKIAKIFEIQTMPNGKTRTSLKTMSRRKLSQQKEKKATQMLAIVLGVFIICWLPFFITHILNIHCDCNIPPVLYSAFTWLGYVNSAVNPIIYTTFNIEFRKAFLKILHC
Sequence of Kappa-type opioid receptor (Homo sapiens) (P41145 whole entry): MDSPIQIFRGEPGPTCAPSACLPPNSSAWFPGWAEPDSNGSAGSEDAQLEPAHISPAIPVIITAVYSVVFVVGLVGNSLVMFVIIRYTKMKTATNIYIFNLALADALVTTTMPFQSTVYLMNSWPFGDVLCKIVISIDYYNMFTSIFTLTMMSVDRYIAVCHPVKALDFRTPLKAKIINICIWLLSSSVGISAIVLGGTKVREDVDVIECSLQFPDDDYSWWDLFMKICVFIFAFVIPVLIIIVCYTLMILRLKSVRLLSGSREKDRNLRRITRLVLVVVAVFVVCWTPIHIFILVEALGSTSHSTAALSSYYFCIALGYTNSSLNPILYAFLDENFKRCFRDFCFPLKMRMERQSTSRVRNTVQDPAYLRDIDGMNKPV

Activity [1] [%]	Activity [2] [%]	Activity [3] [%]	inhibition [4] [%]	Activity [5] [%]	inhibition [6] [%]	Activity [7] [%]	inhibition [8] [%]	inhibition [9] [%]	Activity [10] [%]	inhibition [11] [%]	inhibition [12] [%]	SMILES
-8	-3	-2	26	15	11	25	105	29	32	-3	41	CN(CCCNC(=O)c1ccc(Cl)cc1)CCc1ccccc1
-4	-2	-2	28	-7	12	25	49	22	-5	17	33	CN(CCCNC(=O)c1ccc(C(F)(F)F)cc1)Cc1ccccc1
-8	-2	-1	24	-10	8	-3	50	12	3	20	3	CN(CCCNC(=O)c1ccc(Cl)cc1)Cc1ccccc1
-4	-3	-2	40	-7	7	-2	45	26	3	21	22	CN(CCNC(=O)c1ccc(Cl)cc1)Cc1ccccc1
0	-1	-2	23	9	-2	-15	32	18	4	30	18	CN(CCNC(=O)c1ccc([N+](=O)[O-])cc1)Cc1ccccc1
-10	1	-1	26	1	11	4	37	17	-4	31	34	CCCc1ccc(C(=O)NCCCN(C)Cc2ccccc2)cc1
-2	0	-2	4	10	-5	16	20	18	0	25	10	COc1cccc(C(=O)NCCCN(C)Cc2ccccc2)c1
-5	-5	-1	21	-7	6	20	25	14	-1	15	21	CN(CCCNC(=O)c1ccc([N+](=O)[O-])cc1)Cc1ccccc1
-12	-3	0	26	-3	12	-2	57	10	-4	21	58	CN(CCCNC(=O)c1cccc(Br)c1)Cc1ccccc1
-1	-1	-1	23	9	-1	-14	23	14	-2	25	4	COc1ccc(C(=O)NCCCN(C)Cc2ccccc2)cc1
-1	-1	-2	9	-3	9	-23	19	21	4	34	14	CN(CCNC(=O)c1ccc(C#N)cc1)Cc1ccccc1
-10	3	-1	22	-8	9	-1	42	-5	0	4	4	CN(CCCNC(=O)c1ccc(Br)cc1)Cc1ccccc1

— ChEMBL document CHEMBL4130363, “Synthesis and pharmacological evaluation of benzamide derivatives as potent and selective sigma-1 protein ligands” (Eur J Med Chem, 2017)
